Measurements reported in patent publication US20200323954A1, “METHODS AND COMPOSITIONS FOR REDUCING GUT ISCHEMIA/REPERFUSION-INDUCED INJURY” (PanTheryx, Inc., priority 2019, published 2020).
Entries after “also recorded” stand apart in the source; their conditions may differ. Marks after values point to notes of the source that are not given here.

Key:
[1] = tested on: lung tissue; test: Gut I/R model, lung tissue
[2] = tested on: NSAID-induced gastric injury; settings: rats, PSTI administration; cited from earlier work
[3] = tested on: RIE1 cells; test: Apoptotic and protective pathways after H/R in RIE1 cells; format: cell-based, rat; settings: RIE1, Hyp 1 h/Rep 24 h + PSTI, mean +/− SEM
Method: (§1) Hypoxia (Ischemia)/Normoxia (Reperfusion) (H/R) protocols for in vitro studies: For all experiments AGS, Caco-2 and RIE1 cells were set up in plates as described in specific methods. Cells were used at 70-80% confluence for cell injury/death assessment and as confluent monolayers for permeability studies. To induce “ischemia”, cells were placed in a hypoxic incubator (2% 02) for specified time and to mimic reperfusion, cells were placed back in a normoxic (21% 02) incubator for specified time. All treatments were duplicated in a second set of identical plates under normoxic conditions throughout the same test period as controls. To determine optimum conditions for the in vitro studies, pilot studies were performed.

[4] = tested on: 50% SI (clamped region); test: Gut ischemia-reperfusion (I/R) model, clamped 50% SI site
[5] = tested on: AGS cells; test: Apoptotic and protective pathways after H/R in AGS cells; format: cell-based, human; settings: Hyp 1 h/Rep 24 h + PSTI, mean +/− SEM
Method: as §1

[6] = tested on: Caco-2 cells; test: Apoptotic and protective pathways after H/R in Caco-2 cells; format: cell-based, human
Method: as §1
Cleared cell lysates from I/R experiments in Caco-2 cells were assessed for levels of the apoptotic molecules Caspase 3 (FIG. 5A), Caspase 9 (FIG. 5I), Baxα (FIG. 5B) and Bcl2 (FIG. 5C). HIF1α (FIG. 5Δ), VEGF (FIG. 5E), hSP70 (FIG. 5F), ICAM1 (FIG. 5G) and the tight junction molecules ZO1 (FIG. 5H) and Claudin1 (FIG. 5J) levels were also analysed.

[7] = tested on: lipopolysaccharide-stimulated dendritic cells; settings: lipopolysaccharide-stimulated dendritic cells in vitro; cited from earlier work
[8] = tested on: 90% small intestine (SI) tissue (non-clamped segment of bowel); test: Gut I/R model, non-clamped 90% SI site; settings: 90% SI non-clamped, mean ± SEM
[9] = tested on: polarised Caco-2 monolayers; test: Transepithelial electrical resistance (TEER) after H/R; format: cell-based, human
Method: as §1
(§2) The effect of […] PSTI pre-treatment on transepithelial permeability induced by 1 hour of hypoxia followed by 24 hours of normoxia was examined using Caco-2, human polarizing colonic adenocarcinoma cells utilizing two different previously published methods according to Davison et al., 2016, Am J Nutr 2016; 104:526-536. One method determined change in transepithelial electrical resistance (TEER) and the other method analyzed the passage of horseradish peroxidase (HRP) across the epithelial layer. HRP (type II) is a non-digestible macromolecular protein (MW=44 kD) and has previously been used as a tracer in evaluation of epithelial permeability. Each monolayer had TEER and HRP permeability assessed at baseline, at the end of 1 h incubation in an hypoxic (ischemic) chamber and at the end of a 24 h reoxygenation (reperfusion) period. Measurements were taken in triplicate from 4 wells per treatment. Results are expressed as mean+/−SEM.

[10] = tested on: polarised Caco-2 monolayers; test: Permeation of horseradish peroxidase (HRP) through the monolayer after H/R; format: cell-based, human
Method: as §1, §2

[11] = tested on: DSS-induced colitis; settings: rats, PSTI administration; cited from earlier work
[12] = tested on: NSAID-induced apoptosis; settings: cited from earlier work
[13] = IR + PSTI 20 μg/kg ip, mean ± SEM
[14] = PSTI 20 μg/kg ip, vs I/R without PSTI
[15] = 50% SI clamped, PSTI 20 μg/kg ip, vs I/R without PSTI
[16] = Caco-2, 1 h or 4 h hypoxia + 24 h normoxia, PSTI 1 h before, vs H/R without PSTI
[17] = normoxic, any of the cell lines (data not shown)
[18] = PSTI added to the medium prior to I/R

## pancreatic secretory trypsin inhibitor (DSLGREAKCYNELNGCTKIYDPVCGTDGNTYPNECVLCFENRKRQTSILIQKSGPC; listed as Homo sapiens) [PSTI]
[1]; IR + PSTI 20 μg/kg ip 1 h before clamping, mean ± SEM
  Caspase 3: 0.092 ± 0.022 Change in absorbance
[1]; [13]
  Baxα: 3.74 ± 0.21 pg/μg total protein
  Bcl2: 45.66 ± 3.79 pg/μg total protein
  Caspase 9: 0.063 ± 0.004 Change in absorbance
  Claudin 1: 9.63 ± 0.40 pg/μg total protein
  ZO1: 8.15 ± 0.80 pg/μg total protein
[1]; PSTI 20 μg/kg ip 1 h before clamping, vs I/R without PSTI
  histological damage of lung: markedly truncated these effects; also recorded: protective effects; also recorded: markedly truncated the adverse effects; also recorded: significantly reduced histological scoring of lung damage
[1]; [14]
  MDA levels: this increase was truncated; also recorded: significantly reduced MDA levels
  MPO levels (neutrophil infiltration): reduced neutrophil infiltration of the lungs; also recorded: significantly reducing these changes; also recorded: significantly reduced MPO levels
[2]
  NSAID-induced gastric injury: reduces NSAID-induced gastric injury
[3]
  Baxα: 97.6 +/− 0.01 ** $ % normoxic
  Bcl2: 49.3 +/− 1.91 ** $$ % normoxic
  Caspase 3: 112.3 +/− 2.70 * % normoxic
  Caspase 9: 120.6 +/− 17.02 * $ % normoxic
  Claudin 1: 75.6 +/− 2.1 ** $$ % normoxic
  HIF1α: 144.1 +/− 0.17 ** $$ % normoxic
  ICAM1: 115.4 +/− 1.09 ** % normoxic
  VEGF: 121.8 +/− 2.53 ** $$ % normoxic
  ZO1: 83.6 +/− 0.69 * $ % normoxic
  hSP70: 122.9 +/− 0.85 ** % normoxic
[4]; 50% SI clamped (gut), PSTI 20 μg/kg ip, vs I/R without PSTI
  ICAM1 levels: did not affect increased ICAM1; also recorded: no effect on these results; also recorded: did not affect ICAM1 levels
[4]; 50% SI clamped, PSTI 20 μg/kg ip 1 h before clamping, vs I/R without PSTI
  histological damage of small intestine: much less extensive damage; also recorded: protective effects; also recorded: significantly reduced histological scoring
[4]; [15]
  Baxα levels: truncated the increase; also recorded: significantly decreased the damaging pro-apoptotic Baxα activity
  Bcl2 levels: maintained levels; also recorded: significantly increased the protective anti-apoptotic Bcl2 activity
  Caspase 3 levels: virtually eliminated; also recorded: significantly decreased Caspase 3 activity
  Caspase 9 levels: virtually eliminated; also recorded: significantly decreased Caspase 9 activity
  Claudin1 levels: virtually completely prevented; also recorded: significantly increased the protective Claudin1
  HIF1α levels: further increasing HIF1α and VEGF; also recorded: significantly increased the protective HIF1α
  MDA levels: this increase was truncated; also recorded: significantly reduced MDA levels
  MPO levels: significantly reducing these changes; also recorded: significantly reduced MPO levels
  VEGF levels: further increasing HIF1α and VEGF; also recorded: significantly increased the protective VEGF
  ZO1 levels: virtually completely prevented; also recorded: significantly increased the protective ZO1
  hSP70 levels: Additional increases in hSP70 expression; also recorded: significantly increased the protective hSP70
[4]; gut, lung, kidney (necrosis, MDA, MPO), PSTI 20 μg/kg, p<0.01
  reduction of all injury markers: 50-80%
[4]; pre-treatment with PSTI
  histological and biochemical markers of injury in gut, lung and kidney: significantly reduced histological and biochemical markers of injury
[5]
  Baxα: 110.9 +/− 2.79 * $ % normoxic
  Bcl2: 49.3 +/− 1.91 ** $$ % normoxic
  Caspase 3: 228.2 +/− 18.72 * $ % normoxic
  Caspase 9: 119.8 +/− 13.25 * $ % normoxic
  Claudin 1: 77.3 +/− 3.63 ** $$ % normoxic
  HIF1α: 145.2 +/− 0.66 ** $$ % normoxic
  ICAM1: 113.6 +/− 0.12 **^ % normoxic
  VEGF: 125.82 +/− 2.0 ** $$ % normoxic
  ZO1: 82.1 +/− 0.98 ** $ % normoxic
  hSP70: 132.9 +/− 1.05 ** $ % normoxic
[6]; 4 h hypoxia+24 h reoxygenation, cells pre-treated with PSTI (FIG. 5D)
  further increase in HIF1α above the 42% increase induced by H/R: 11%
[6]; 4 h hypoxia+24 h reoxygenation, co-presence of PSTI (FIG. 5E)
  further increase in VEGF above the 34% increase caused by H/R: 15%
[6]; 4 h hypoxia+24 h reoxygenation, H/R alone about 63% (FIG. 5F)
  increase in hSP70 after H/R with PSTI: about 80%
[6]; [16]
  Baxα activity: significantly truncated; also recorded: significantly decreased Baxα activity
  Bcl2 activity: this effect was truncated; also recorded: significantly attenuated reduction in Bcl2 activity
  Caspase 3 activity: significantly decreased Caspase 3 activity
  Caspase 9 activity: significantly decreased Caspase 9 activity
  Claudin1 activity: significantly attenuated reduction in Claudin1 activity
  HIF1α activity: significantly increased HIF1α activity
  ICAM1 activity: not influenced by the presence of PSTI; also recorded: did not significantly affect ICAM1 activity
  VEGF activity: significantly increased VEGF activity
  ZO1 activity: significantly attenuated reduction in ZO1 activity
  hSP70 activity: significantly increased hSP70 activity
[6]; after 4 hours of hypoxia (FIG. 5H, 5J)
  truncation of the H/R-induced fall in ZO1 and Claudin1: about 50%
[6]; [17]
  Caspase 3, 9, Baxα or Bcl2 under normoxic conditions: no effect on Caspase 3, 9, Baxα or Bcl2
  HIF1α or VEGF under normoxic conditions: no effect on HIF1α or VEGF
[6]; normoxic, any of the cell lines tested (data not shown)
  ICAM1 levels under normoxic conditions: no effect on ICAM1 levels
[7]
  cytokine release of TNFα and IL-12: reduced cytokine release of TNFα and IL-12
[8]; I/R + PSTI 20 μg/kg ip 1 h before clamping, 30 min ischemia/3 h reperfusion
  Histological score (0-5): 0.142 ± 0.142
[8]; I/R + PSTI 20 μg/kg ip
  Bcl2: 5.55 ± 1.00 pg/μg total protein
  Caspase 3: 0.021 ± 0.007 Change in absorbance
  Caspase 9: 0.014 ± 0.00052 Change in absorbance
  Claudin 1: 0.152 ± 0.014 pg/μg total protein
  ZO1: 0.17 ± 0.008 pg/μg total protein
[9]; Caco-2, 1 h hypoxia + 24 h normoxia, PSTI pre-treatment
  reduction of the fall in TEER caused by H/R: about 50%
[9]; Caco-2, normoxia
  TEER under normoxic conditions: no effect on TEER or HRP permeation; also recorded: no effect on transepithelial resistance (TEER)
[9]; [18]
  H/R-induced change in TEER permeability, medium alone vs PSTI: significantly greater increases in permeability compared to those that had PSTI added
[9]; TEER and HRP permeation, polarized monolayers
  truncation of the damaging effect of hypoxia-normoxia on epithelial integrity: about 65%
[10]; Caco-2, end of the 1 h hypoxic period
  truncation of the increase in HRP permeability: about 54%
[10]; Caco-2, final H/R time point (1 h hypoxia + 24 h)
  truncation of the increase in HRP permeability: 37%
[10]; Caco-2 monolayers, hypoxia/reperfusion 1 h+24 h, p<0.01
  truncation of the 300% increase in transepithelial permeability (horse radish peroxidase translocation): 50%
[10]; [18]
  I/R-induced change in HRP permeability, medium alone vs PSTI: significantly greater increases in permeability compared to those that had PSTI added
[10]; normoxia
  HRP permeation under normoxic conditions: no effect on TEER or HRP permeation
[11]
  DSS-induced colitis: reduces NSAID-induced gastric injury and DSS-induced colitis
[12]
  NSAID-induced apoptosis: reduces NSAID-induced apoptosis
